# Starred links: 1 amine or outer side, 2 acyl side, 3 side chain; linkers in the order of their positions; H or OH if unused. Positions of bridges follow the written chain, without caps; N, C: chain ends. Non-standard residues stand in square brackets, D forms with d. Residues, ends and D or L forms follow the SMILES beside them. Groups on a side chain read outwards from the residue. *: point of attachment. X12 = O=C(O)CN1CCN(CC(=O)O)CCN([C@@H](CCC(=O)*)C(=O)O)CCN(CC(=O)O)CC1; Ala(piperidin-4-yl) = O=C([C@H](CC1CCN([*:3])CC1)N[*:1])[*:2]; DOTA = O=C(O)CN1CCN(CC(=O)O)CCN(CC(=O)*)CCN(CC(=O)O)CC1; Phe(4-NHCONH2) = NC(=O)Nc1ccc(C[C@H](N)C(=O)O)cc1; Tyr(SO2F) = N[C@@H](Cc1ccc(OS(=O)(=O)F)cc1)C(=O)O; Trp(5-F) = N[C@@H](Cc1c[nH]c2ccc(F)cc12)C(=O)O; X15 = CC(=O)N1CCC(C[C@H](N[*:1])C(=O)[*:2])CC1; X1 = C[C@@H](c1ccccc1)[C@H](N[*:1])C(=O)[*:2]; Lys(Me3) = C[N+](C)(C)CCCC[C@H](N)C(=O)O; γGlu = O=C(O)[C@H](CCC(=O)[*:2])N[*:1]; 1Nal = N[C@@H](Cc1cccc2ccccc12)C(=O)O; Ala(4-THP) = N[C@@H](CC1CCOCC1)C(=O)O; AEF = NCCOc1ccc(C[C@H](N)C(=O)O)cc1; Val(3-OH) = CC(C)(O)[C@H](N)C(=O)O; Cha = N[C@@H](CC1CCCCC1)C(=O)O; PEG4 = NCCOCCOCCOCCOCCC(=O)O; Tle = CC(C)(C)[C@H](N)C(=O)O; hLeu = CC(C)CC[C@H](N)C(=O)O; Nle = CCCC[C@H](N)C(=O)O
# Molecular target: T1, human 4lg B7-H3 (Homo sapiens, UniProt Q5ZPR3)
# T1 sequence (Q5ZPR3 29-534): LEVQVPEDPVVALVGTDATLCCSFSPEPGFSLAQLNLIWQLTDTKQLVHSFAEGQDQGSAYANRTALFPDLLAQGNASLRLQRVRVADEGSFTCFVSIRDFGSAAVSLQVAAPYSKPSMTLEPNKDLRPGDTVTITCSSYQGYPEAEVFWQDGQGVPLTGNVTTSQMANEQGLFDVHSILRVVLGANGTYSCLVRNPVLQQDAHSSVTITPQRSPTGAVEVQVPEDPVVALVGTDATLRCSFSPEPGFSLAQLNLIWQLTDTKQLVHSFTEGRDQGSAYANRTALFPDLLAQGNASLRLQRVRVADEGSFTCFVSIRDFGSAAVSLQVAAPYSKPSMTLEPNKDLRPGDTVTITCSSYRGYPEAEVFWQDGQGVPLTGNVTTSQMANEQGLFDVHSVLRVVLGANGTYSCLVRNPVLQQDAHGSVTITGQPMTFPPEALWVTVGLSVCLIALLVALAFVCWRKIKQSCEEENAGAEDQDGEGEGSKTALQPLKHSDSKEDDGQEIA
# Assay: Affinity determination by surface plasmon resonance (SPR) to 4Ig B7-H3
# Conditions: not given
row,Compound,Kd
1,"CC(=O)N[C@@H](CCC(C)C)C(=O)N[C@@H](Cc1ccc(OS(=O)(=O)F)cc1)C(=O)N[C@H]1CSSC[C@@H](C(=O)N[C@@H](Cc2c[nH]c3ccc(F)cc23)C(=O)N[C@@H](Cc2ccccc2)C(=O)N[C@H](C(=O)N[C@H](CCCCNC(=O)CN2CCN(CC(=O)O)CCN(CC(=O)O)CCN(CC(=O)O)CC2)C(=O)O)C(C)(C)O)NC(=O)[C@H](Cc2ccc(O)cc2)NC(=O)[C@H](C(C)C)NC(=O)[C@H](CC(=O)O)NC(=O)[C@H](CC2CCOCC2)NC(=O)[C@H](CC2CCNCC2)NC(=O)CNC(=O)[C@H](C(C)(C)C)NC1=O [compound 478, Ac-hLeu-FSY-C-Tbg-G-PipAla-ThpA-D-V-Y-C-5FW-F-hydroxyVal-dLys(DOTA)-COOH] (Ac-[hLeu][Tyr(SO2F)]C[Tle]G[Ala(piperidin-4-yl)][Ala(4-THP)]DVYC[Trp(5-F)]F[Val(3-OH)][dK](DOTA)-OH; disulfide 3-11)",10 to 100 nM

# Same assay, conditions: SPR KD—25° C., 4Ig B7-H3; 25° C. flow cell temperature
row,Kd,Compound
1,1 to 10 nM,"CC(=O)N[C@@H](CCC(C)C)C(=O)N[C@@H](Cc1ccc(O)cc1)C(=O)N[C@H]1CSSC[C@@H](C(=O)N[C@@H](Cc2cccc3ccccc23)C(=O)N[C@@H](Cc2ccccc2)C(=O)N2CCC[C@H]2C(=O)N[C@H](CCCCNC(=O)CC[C@H](NC(=O)CC[C@H](NC(=O)CC[C@H](NC(=O)CN2CCN(CC(=O)O)CCN(CC(=O)O)CCN(CC(=O)O)CC2)C(=O)O)C(=O)O)C(=O)O)C(N)=O)NC(=O)[C@H](Cc2ccc(O)cc2)NC(=O)[C@H](C(C)C)NC(=O)[C@H](CC(=O)O)NC(=O)[C@H](CC2CCCCC2)NC(=O)[C@H](CC2CCNCC2)NC(=O)CNC(=O)[C@H](C(C)(C)C)NC1=O [compound 278, Ac-hLeu-Y-C-Tbg-G-PipAla-CHA-D-V-Y-C-1Nal-F-Pro-dLys(gE-gE-DOTA)-CONH2] (Ac-[hLeu]YC[Tle]G[Ala(piperidin-4-yl)][Cha]DVYC[1Nal]FP[dK]([γGlu-γGlu-γGlu-DOTA])-NH2; disulfide 3-11)"
2,1 to 10 nM,"CC(=O)N[C@@H](CCC(C)C)C(=O)N[C@@H](Cc1ccc(O)cc1)C(=O)N[C@H]1CSSC[C@@H](C(=O)N[C@@H](Cc2c[nH]c3ccc(F)cc23)C(=O)N[C@@H](Cc2ccccc2)C(=O)N[C@H](C(N)=O)[C@@H](C)O)NC(=O)[C@H](Cc2ccc(OCCNC(=O)CN3CCN(CC(=O)O)CCN(CC(=O)O)CCN(CC(=O)O)CC3)cc2)NC(=O)[C@H](C(C)C)NC(=O)[C@H](CC(=O)O)NC(=O)[C@H](Cc2ccc(O)cc2)NC(=O)[C@H](CCCCN)NC(=O)CNC(=O)[C@H](C(C)C)NC1=O [compound 191, Ac-hLeu-Y-C-V-G-K-Y-D-V-AEF(DOTA)-C-5FW-F-Thr-CONH2] (Ac-[hLeu]YCVGKYDV[AEF](DOTA)C[Trp(5-F)]FT-NH2; disulfide 3-11)"
3,1 to 10 nM,"CCCC[C@@H]1NC(=O)[C@H](CC(=O)O)NC(=O)[C@H](Cc2ccc(O)cc2)NC(=O)[C@H](CCCCN)NC(=O)CNC(=O)[C@H](C(C)C)NC(=O)[C@@H](NC(=O)[C@H](Cc2ccc(O)cc2)NC(=O)[C@H](CCC(C)C)NC(C)=O)CSSC[C@@H](C(=O)N[C@@H](Cc2c[nH]c3ccc(F)cc23)C(=O)N[C@@H](Cc2ccccc2)C(=O)N[C@H](C(=O)N[C@H](CCCCNC(=O)CN2CCN(CC(=O)O)CCN(CC(=O)O)CCN(CC(=O)O)CC2)C(N)=O)[C@@H](C)O)NC(=O)[C@H](Cc2ccc(O)cc2)NC1=O [compound 186, Ac-hLeu-Y-C-V-G-K-Y-D-Nle-Y-C-5FW-F-Thr-dLys(DOTA)-CONH2] (Ac-[hLeu]YCVGKYD[Nle]YC[Trp(5-F)]FT[dK](DOTA)-NH2; disulfide 3-11)"
4,1 to 10 nM,"CCCC[C@H](NC(C)=O)C(=O)N[C@@H](Cc1ccc(O)cc1)C(=O)N[C@H]1CSSC[C@@H](C(=O)N[C@@H](Cc2c[nH]c3ccccc23)C(=O)N[C@@H](Cc2ccccc2)C(=O)N[C@@H](CCC(=O)O)C(N)=O)NC(=O)[C@H](Cc2ccc(O)cc2)NC(=O)[C@H](C(C)C)NC(=O)[C@H](CC(=O)O)NC(=O)[C@H](Cc2ccc(O)cc2)NC(=O)[C@H](CCCCN)NC(=O)CNC(=O)[C@H](C(C)C)NC1=O [compound 34, Ac-Nle-Y-C-V-G-K-Y-D-V-Y-C-W-F-E-CONH2] (Ac-[Nle]YCVGKYDVYCWFE-NH2; disulfide 3-11)"

# Same assay, conditions: SPR KD—37° C., 4Ig B7-H3; 37° C. flow cell temperature
row,Kd,Compound
1,< 1 nM,"CC(=O)N[C@@H](CCC(C)C)C(=O)N[C@@H](Cc1ccc(O)cc1)C(=O)N[C@H]1CSSC[C@@H](C(=O)N[C@@H](Cc2c[nH]c3ccc(F)cc23)C(=O)N[C@H](C(=O)N[C@H](C(=O)N[C@H](C)C(=O)O)C(C)(C)O)[C@@H](C)c2ccccc2)NC(=O)[C@H](Cc2ccc(O)cc2)NC(=O)[C@H](C(C)C)NC(=O)[C@H](CC(=O)O)NC(=O)[C@H](CC2CCN(C(=O)CCOCCOCCOCCOCCNC(=O)CN3CCN(CC(=O)O)CCN(CC(=O)O)CCN(CC(=O)O)CC3)CC2)NC(=O)[C@H](CCCC[N+](C)(C)C)NC(=O)CNC(=O)[C@H](C(C)(C)C)NC1=O [compound 522, Ac-hLeu-Y-C-Tbg-G-Lys(Me)3-Pip(PEG4-DOTA)Ala-D-V-Y-C-5FW-[(2S, 3S)beta-Me-Phe]-hydroxyVal-dAla-COOH] (Ac-[hLeu]YC[Tle]G[Lys(Me3)][Ala(piperidin-4-yl)]([PEG4-DOTA])DVYC[Trp(5-F)][X1][Val(3-OH)][dA]-OH; disulfide 3-11)"
2,< 1 nM,"CC(=O)N[C@@H](CCC(C)C)C(=O)N[C@@H](Cc1ccc(O)cc1)C(=O)N[C@H]1CSSC[C@@H](C(=O)N[C@@H](Cc2c[nH]c3ccc(F)cc23)C(=O)N[C@H](C(=O)N[C@H](C(=O)N[C@H](CCCCNC(=O)CCOCCOCCOCCOCCNC(=O)CN2CCN(CC(=O)O)CCN(CC(=O)O)CCN(CC(=O)O)CC2)C(=O)O)C(C)(C)O)[C@@H](C)c2ccccc2)NC(=O)[C@H](Cc2ccc(NC(N)=O)cc2)NC(=O)[C@H](C(C)C)NC(=O)[C@H](CC(=O)O)NC(=O)[C@H](CC2CCOCC2)NC(=O)[C@H](CC2CCNCC2)NC(=O)CNC(=O)[C@H](C(C)(C)C)NC1=O [compound 500, Ac-hLeu-Y-C-Tbg-G-PipAla-ThpA-D-V-Aph(Cbm)-C-5FW-[(2S, 3S)beta-Me-Phe]-hydroxyVal-dLys(PEG4-DOTA)-COOH] (Ac-[hLeu]YC[Tle]G[Ala(piperidin-4-yl)][Ala(4-THP)]DV[Phe(4-NHCONH2)]C[Trp(5-F)][X1][Val(3-OH)][dK]([PEG4-DOTA])-OH; disulfide 3-11)"
3,< 1 nM,"CC(=O)N[C@@H](CCC(C)C)C(=O)N[C@@H](Cc1ccc(O)cc1)C(=O)N[C@H]1CSSC[C@@H](C(=O)N[C@@H](Cc2c[nH]c3ccc(F)cc23)C(=O)N[C@H](C(=O)N[C@H](C(=O)N[C@H](C)C(=O)O)C(C)(C)O)[C@@H](C)c2ccccc2)NC(=O)[C@H](Cc2ccc(O)cc2)NC(=O)[C@H](C(C)C)NC(=O)[C@H](CC(=O)O)NC(=O)[C@H](CC2CCN(C(=O)CCOCCOCCOCCOCCNC(=O)CN3CCN(CC(=O)O)CCN(CC(=O)O)CCN(CC(=O)O)CC3)CC2)NC(=O)[C@H](CC2CCN(C(C)=O)CC2)NC(=O)CNC(=O)[C@H](C(C)(C)C)NC1=O [compound 513, Ac-hLeu-Y-C-Tbg-G-Pip(Ac)Ala-Pip(PEG4-DOTA)Ala-D-V-Y-C-5FW-[(2S, 3S)beta-Me-Phe]-hydroxyVal-dAla-COOH] (Ac-[hLeu]YC[Tle]G[X15][Ala(piperidin-4-yl)]([PEG4-DOTA])DVYC[Trp(5-F)][X1][Val(3-OH)][dA]-OH; disulfide 3-11)"
4,10 to 100 nM,"CCCC[C@H](NC(C)=O)C(=O)N[C@@H](Cc1ccc(O)cc1)C(=O)N[C@H]1CSSC[C@@H](C(=O)N[C@@H](Cc2c[nH]c3ccccc23)C(=O)N[C@@H](Cc2ccccc2)C(=O)N[C@@H](CCC(=O)O)C(N)=O)NC(=O)[C@H](Cc2ccc(O)cc2)NC(=O)[C@H](C(C)C)NC(=O)[C@H](CC(=O)O)NC(=O)[C@H](Cc2ccc(O)cc2)NC(=O)[C@H](CCCCN)NC(=O)CNC(=O)[C@H](C(C)C)NC1=O [compound 34, Ac-Nle-Y-C-V-G-K-Y-D-V-Y-C-W-F-E-CONH2] (Ac-[Nle]YCVGKYDVYCWFE-NH2; disulfide 3-11)"
5,< 1 nM,"CC(=O)N[C@@H](CCC(C)C)C(=O)N[C@@H](Cc1ccc(O)cc1)C(=O)N[C@H]1CSSC[C@@H](C(=O)N[C@@H](Cc2c[nH]c3ccc(F)cc23)C(=O)N[C@@H](Cc2ccccc2)C(=O)N[C@H](C(=O)N[C@H](CCCCNC(=O)CC[C@@H](C(=O)O)N2CCN(CC(=O)O)CCN(CC(=O)O)CCN(CC(=O)O)CC2)C(=O)O)C(C)(C)O)NC(=O)[C@H](Cc2ccc(O)cc2)NC(=O)[C@H](C(C)C)NC(=O)[C@H](CC(=O)O)NC(=O)[C@H](CC2CCOCC2)NC(=O)[C@H](CC2CCNCC2)NC(=O)CNC(=O)[C@H](C(C)(C)C)NC1=O [compound 439, Ac-hLeu-Y-C-Tbg-G-PipAla-ThpA-D-V-Y-C-5FW-F-hydroxyVal-dLys(S-DOTAGA)-COOH] (Ac-[hLeu]YC[Tle]G[Ala(piperidin-4-yl)][Ala(4-THP)]DVYC[Trp(5-F)]F[Val(3-OH)][dK](X12)-OH; disulfide 3-11)"
6,100 to 300 nM,"CC(=O)N[C@@H](CCC(C)C)C(=O)N[C@@H](Cc1ccc(O)cc1)C(=O)N[C@H]1CSSC[C@@H](C(=O)N[C@@H](Cc2c[nH]c3ccc(F)cc23)C(=O)N[C@@H](Cc2ccccc2)C(=O)N[C@H](C(=O)N[C@H](CCCCNC(=O)CN2CCN(CC(=O)O)CCN(CC(=O)O)CCN(CC(=O)O)CC2)C(=O)O)C(C)(C)O)NC(=O)[C@H](Cc2ccc(O)cc2)NC(=O)[C@H](CO)NC(=O)[C@H](CC(=O)O)NC(=O)[C@H](CC2CCOCC2)NC(=O)[C@H](CCCCN)NC(=O)CNC(=O)[C@H](C(C)(C)C)NC1=O [compound 378, Ac-hLeu-Y-C-Tbg-G-K-ThpA-D-Ser-Y-C-5FW-F-hydroxyVal-dLys(DOTA)-COOH] (Ac-[hLeu]YC[Tle]GK[Ala(4-THP)]DSYC[Trp(5-F)]F[Val(3-OH)][dK](DOTA)-OH; disulfide 3-11)"
